Data set [1] relates to erythropoiesis and myelopoiesis. The experiment in a line: In vitro cell culture testing of stimulation of erythropoiesis and myelopoiesis. Type of data set: cell-based. As to conditions: for concentration giving stimulation of erythropoiesis and myelopoiesis: cell culture, data not shown. The text has this:
ST7S is shown to stimulate myelopoiesis and erythropoiesis in animal subjects. […] Thus, the employed concentration of S isomer is about 4-fold lower than that of racemate to achieve similar degrees of erythropoiesis and myelopoiesis.

In data set [2] the test system is erythropoiesis. In words: ST7 once daily to mice for 5 days: erythropoiesis (hematocrit, hemoglobin). Type of data set: in vivo. Particulars: once daily for 5 days, by day 14.
The subject of data set [3] is erythropoiesis. In words: Oral ST7 in baboon with daily phlebotomy, chronic anemia. Type of data set: in vivo. As to conditions: oral 50 mg/kg per day, 5 days a week over 3 weeks.
Data set [4] relates to WBC and neutrophil counts. The experiment in a line: WBC and absolute neutrophil counts (ANC) in baboons. Type of data set: in vivo, baboon. The method, then:
FIG. 12 is a graph showing increase in both white blood cells (WBC) and Absolute neutrophil counts (ANC) after oral administration of 200 mg/kg ST7S on days 0-4 results in a 3-fold stimulation in WBC and neutrophil counts over 6 days.
In particular, oral administration of ST7 to a baboon results in a 3-fold stimulation of WBC count over 6 days (FIG. 2A).

Data set [5] concerns human hematopoietic cultures. In words: CFU-GM colony formation in human hematopoietic cultures. It counts as cell-based.
The next data set deals with platelet counts. The experiment in a line: Platelet counts in nonhuman primates. Type of data set: in vivo, baboon. Particulars: IV to 3 baboons on days 1-3 and 7-9. Here is the method: ST7 was administered via IV to baboons on days 1-3 and 7-9. ST7 works as similarly in all three baboons (Baboon numbers: GG24, FM45, FM83).
Administration of ST7 also increases platelet levels after administration to non-human primates.

Data set [6] has as its system Chemotherapy-Induced Neutropenia Murine Model. In words: Chemotherapy (5-FU)-induced neutropenia murine model. It counts as in vivo, mice. Here is the method:
Mice were treated with 5-FU on day 0, then received daily SC injection of saline or ST7 or G-CSF beginning on Day 1 and absolute neutrophil counts (ANC) were assessed on days 0, 9 and 13.
Additionally, administration of ST7 also enhances Myeloid Recovery in a Chemotherapy-Induced Neutropenia Murine Model. Mice were treated with 5-FU on day 0, then received daily SC injection of saline (control) or ST7 or G-CSF beginning on Day 1 and the absolute neutrophil counts (ANC) were assessed on days 0, 9 and 13.

The next data set has as its system Mcl-1L to Mcl-1S. In words: Western blot of Mcl-1L to Mcl-1S protein expression (anti-apoptotic proteins). Type of data set: cell-based. Particulars: after exposure. The text has this:
(§1) FIG. 7A is a histogram showing hemokines SCFADs induce anti-apoptotic proteins. FIG. 7B is a western blot of Mcl-1L to Mcl-1S protein expression (with β-actin as a protein loading control).
Background: Immunoblotting shows a protein as a band on a membrane.

The subject of data set [7] is cultured normal human neutophils. In words: Human neutrophil survival in vitro. Type of data set: cell-based. Particulars: 200 μM, 50 μM.
Excerpt: as §1

A short description of data set [8]: PK profiles after oral and IV administration in baboons. Type of data set: in vivo. Here is the method:
(§2) FIGS. 8A-8B show […] and oral bioavailability of ST7. […] Target does equivalent to 20 mg/kg in an adult human.
(§3) Accordingly, ST7 is suitable for once/day dosing.

A short description of data set [9]: Oral administration to a normal human subject, plasma levels. Type of data set: in vivo. The method, then: as §2, §3
Data set [10] deals with sub-lethally irradiated mouse model. The experiment in a line: Sub-lethally irradiated (6 Gy) mouse model, ANC. It counts as in vivo, mice. Further details: platelet level, level below which decrease was prevented at any timepoint / ANC, level below which decline was prevented at any time: unit not given here. Here is the method:
FIG. 9 is a graph of absolute neutrophil count (ANC) response to NaST7 (500 mg/kg IP and 300 mg/kg IP) after sub-lethal does of irradiation where mice were exposed to 6 Gy irradiation on day 0 and daily ST7 (enantiomer) was administered at two doses, beginning day 1.
(§4) In particular, absolute neutrophil count (ANC) increased after administration of NaST7 (500 mg/kg IP and 300 mg/kg IP) after sub-lethal does of irradiation (e.g., exposure to 6 Gy irradiation on day 0).

The next data set concerns bone marrow. The experiment in a line: Lethally-irradiated murine model, bone marrow histology. It counts as in vivo, mice. As to conditions: LD90 irradiation day 0, daily SC from day 1, day 15. The method, then: Mice were irradiated at LD90 on day 0, and received daily SC injections of ST7-S or saline (control) starting Day 1. Bone marrow was examined on Day 15.
as §4

The mark [11] stands for this setting: oral 200 mg/kg on days 0-4, over 6 days.

“Also recorded” adds a separate entry of the source.

By bioavailability is commonly meant dose-corrected exposure relative to a reference, in per cent.

On to `CC(Cc1ccccc1)C(=O)O` (racemic) [ST7, α-methyl-hydrocinnamic acid], for which the “concentration giving stimulation of erythropoiesis and myelopoiesis” value in data set [1] is “about 200 μM”. For the same compound, in the data set on erythropoiesis [2], the hematocrit result is given as “significant increase in hematocrit”. In the data set with erythropoiesis [3], the “absolute increase in hematocrit level” value is on record as 7 percentage points; the “increase in hematocrit level, % of baseline” value came to 28%; the “increase in total hemoglobin level” value is reported as 2.5 g/dL. The “stimulation of WBC count” value in data set [4] (baboon, oral, over 6 days) worked out at 3 fold. Besides, the CFU-GM colony formation result in [5] is “increases CFU-GM Colony formation”. Also, the platelet count entry in the data set on platelet counts is listed as “stimulation of platelet count in all animals; also recorded: increased platelet counts”. In addition, the “recovery of ANC” value in data set [6] (5-FU day 0, daily SC injection from day 1, day 13) is on record as “accelerated recovery of ANC by day 13 as efficiently as G-CSF”. The “increase in NE (K/μL) as compared to saline control” value in data set [6] (day 13) is given as 7-10 fold. The “ratios of Mcl-1L to Mcl-1S” value with Mcl-1L to Mcl-1S was “shifted towards anti-apoptotic actions”. Besides, the apoptosis of neutrophils result in data set [7] is recorded as “suppresses apoptosis”. This compound also yielded a bioavailability in data set [8] (baboon, in vivo, po, non-human primates, 113 mg/kg) of over 90%. Moreover, the “PK profiles oral versus IV” value in data set [8] (non-human primates) was “nearly identical PK profiles”. Further, the “drug levels relative to target dose” value in data set [9] (normal human subject, oral 1 or 1.4 grams) is given as “persist above the target dose for several hours”. Besides, the “ANC, level below which decline was prevented at any time” value in data set [10] (500 mg/kg IP and 300 mg/kg IP daily from day 1, 6 Gy on day 0) was at least 200. The “platelet level, level below which decrease was prevented at any timepoint” value in data set [10] (500 mg/kg IP and 300 mg/kg IP daily from day 1, sub-lethal irradiation) is listed as at least 200.

In the case of `CC(Cc1ccccc1)C(=O)[O-].[Na+]` (stereo not drawn) [ST7S, S-isomer of alpha-methyl-hydrocinnamic acid], in data set [1], the “fold lower concentration of S isomer than racemate for similar degrees of erythropoiesis and myelopoiesis” value was “about 4 fold”; the “concentration giving stimulation of erythropoiesis and myelopoiesis” value was “about 50 μM”. Also, the “neutrophil counts (ANC), short-term administration” value in [4] (baboons, 100 mg/kg at day 0-2 and day 7-9) is “increases neutrophil counts”. Besides, in data set [4] (baboons, 47 days, administered at 1-5 days and 34-38 days), the “neutrophil counts (ANC), long term” value is given as “increases neutrophil counts; also recorded: Neutrophil counts increase”. Moreover, in data set [4] (setting [11]), the “stimulation in WBC” value came out at 3 fold and the “stimulation in neutrophil counts” value was 3 fold. The “time available after administration” value in [8] (about 113 mg/kg administered orally, FIG. 8A) is listed as “at least 4 hours”. The “time available after administration” value in data set [9] (about 1.4 g administered orally, FIG. 8B) was “at least 14 hours”. The bone marrow histology result with bone marrow is “stimulates bone marrow recovery; also recorded: normocellular marrows”.

The values above are taken from US10111846B2, “S isomers of alpha-methyl-hydrocinnamic acid for the treatment of blood disorders” (priority 2009, dated 2018).
